# Results from US8455475B2 (Gruenenthal GmbH, priority 2009, dated 2013).
# Biological target: T1, rat B1R (bradykinin receptor 1) (Rattus norvegicus, UniProt P97583)
# T1 construct: expressed in transfected cells; host or cells: CHO K1 cells
# T1 sequence (P97583 1-337): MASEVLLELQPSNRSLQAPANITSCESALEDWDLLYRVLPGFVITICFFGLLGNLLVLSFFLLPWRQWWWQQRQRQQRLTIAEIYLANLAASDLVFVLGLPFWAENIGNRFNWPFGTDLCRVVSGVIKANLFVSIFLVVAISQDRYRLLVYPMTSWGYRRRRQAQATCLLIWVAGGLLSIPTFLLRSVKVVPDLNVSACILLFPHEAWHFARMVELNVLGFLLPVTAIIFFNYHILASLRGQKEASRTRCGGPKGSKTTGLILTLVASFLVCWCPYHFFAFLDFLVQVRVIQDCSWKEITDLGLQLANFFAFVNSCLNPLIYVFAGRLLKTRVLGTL
# Experiment: FLIPR Ca2+ assay (Fluo-4) on CHO K1 cells stably transfected with the B1R gene of the rat (rB1R cells): % inhibition at 10 μM / IC50, agonist Des-Arg9-bradykinin
# Type: cell-based
# Details: CHO-K1, rat B1R
# Procedure, shortened: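 Stable CHO K1 lines, Fluo-4 dye, probenecid-containing buffer. Cpd 10 μM or dose range, 10–20 min, then EC80 agonist (h: Lys-Des-Arg9-BK; r: Des-Arg9-BK). Readout peak FC; % inhibition vs max; IC50 from n=2–3, N≥2.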
row,SMILES,inhibition at 10 µM
1,"CC(C)CN1CCC2(CC1)CCN(C(=O)c1ccc3c(c1)C(NC(=O)c1cccc(Cl)c1Cl)CC3)C2 (centres unmarked) [IND_CC-747, 2,3-Dichloro-N-[6-[8-(2-methyl-propyl)-2,8-diazaspiro[4.5]decane-2-carbonyl]-2,3-dihydro-1H-inden-1-yl]-benzamide]",59%
2,"Cc1noc(C)c1CN1CCC2(CC1)CCN(C(=O)c1ccc3c(c1)C(NC(=O)c1ccccc1Cl)CC3)CC2 (centres unmarked) [IND_CC-532, 2-Chloro-N-[6-[9-[(3,5-dimethyl-isoxazol-4-yl)-methyl]-3,9-diazaspiro[5.5]undecane-3-carbonyl]-2,3-dihydro-1H-inden-1-yl]-benzamide]",62%
3,"O=C(c1ccc2c(c1)C(N(C(=O)c1ccccc1Cl)C1CC1)CC2)N1CCC2(CCN(Cc3c(F)cccc3Cl)CC2)C1 (centres unmarked) [IND_CC-538, 2-Chloro-N-[6-[8-[(2-chloro-6-fluoro-phenyl)-methyl]-2,8-diazaspiro[4.5]-decane-2-carbonyl]-2,3-dihydro-1H-inden-1-yl]-N-cyclopropyl-benzamide]",72%
4,"O=C(c1ccc2c(c1)C(NS(=O)(=O)Cc1cccc(Cl)c1)CC2)N1CCC2(CCN(c3ccncc3)CC2)C1 (centres unmarked) [IND_CC-360, 1-(3-Chlorophenyl)-N-[6-(8-pyridin-4-yl-2,8-diazaspiro[4.5]decane-2-carbonyl)-2,3-dihydro-1H-inden-1-yl]-methanesulfonic acid amide]",69%
5,"O=C(NC1CCc2ccc(C(=O)N3CCC4(CCN(C(=O)Nc5c(Cl)cccc5Cl)CC4)CC3)cc21)c1ccccc1Cl (centres unmarked) [IND_CC-709, 3-[3-[(2-Chloro-benzoyl)amino]-2,3-dihydro-1H-indene-5-carbonyl]-N-(2,6-dichloro-phenyl)-3,9-diazaspiro[5.5]undecane-9-carboxylic acid amide]",91%
6,"Cc1noc(C)c1CN1CCC2(CC1)CCN(C(=O)c1ccc3c(c1)C(NC(=O)c1cc(C(F)(F)F)ccc1Cl)CC3)CC2 (centres unmarked) [IND_CC-665, 2-Chloro-N-[6-[9-[(3,5-dimethyl-isoxazol-4-yl)-methyl]-3,9-diazaspiro[5.5]-undecane-3-carbonyl]-2,3-dihydro-1H-inden-1-yl]-5-(trifluoromethyl)benzamide]",67%
7,"N#Cc1ccc(CN2CCC3(CC2)CCN(C(=O)c2ccc4c(c2)C(NC(=O)c2c(F)cccc2Cl)CC4)C3)cc1 (centres unmarked) [IND_CC-739, 2-Chloro-N-[6-[8-[(4-cyano-phenyl)-methyl]-2,8-diazaspiro[4.5]decane-2-carbonyl]-2,3-dihydro-1H-inden-1-yl]-6-fluoro-benzamide]",83%
8,"N#Cc1ccccc1CN1CCC2(CC1)CCN(C(=O)c1ccc3c(c1)C(N(C(=O)c1ccccc1Cl)C1CC1)CC3)C2 (centres unmarked) [IND_CC-541, 2-Chloro-N-[6-[8-[(2-cyano-phenyl)-methyl]-2,8-diazaspiro[4.5]decane-2-carbonyl]-2,3-dihydro-1H-inden-1-yl]-N-cyclopropyl-benzamide]",65%
9,"COc1ccc(CN2CCC3(CC2)CCN(C(=O)c2ccc4c(c2)C(NC(=O)c2cc(Cl)ccc2F)CC4)CC3)cc1F (centres unmarked) [IND_CC-630, 5-Chloro-2-fluoro-N-[6-[9-[(3-fluoro-4-methoxy-phenyl)-methyl]-3,9-diazaspiro[5.5]undecane-3-carbonyl]-2,3-dihydro-1H-inden-1-yl]-benzamide]",53%
10,"Cc1cc(F)cc(C)c1S(=O)(=O)N(C)C1CCc2ccc(C(=O)N3CCC4(CC3)CCN(c3ccncc3)CC4)cc21 (centres unmarked) [IND_CC-354, 4-Fluoro-N,2,6-trimethyl-N-[6-(9-pyridin-4-yl-3,9-diazaspiro[5.5]undecane-3-carbonyl)-2,3-dihydro-1H-inden-1-yl]-benzenesulfonic acid amide]",84%
11,"O=C(NC1CCc2ccc(C(=O)N3CCC4(CCN(c5ccncc5)CC4)C3)cc21)C1CCC1 (centres unmarked) [IND_CC-415, N-[6-(8-Pyridin-4-yl-2,8-diazaspiro[4.5]decane-2-carbonyl)-2,3-dihydro-1H-inden-1-yl]-cyclobutanecarboxylic acid amide]",100%
12,"CC(C)CC(=O)NC1CCc2ccc(C(=O)N3CCC4(CCN(c5ccncc5)CC4)C3)cc21 (centres unmarked) [IND_CC-409, 3-Methyl-N-[6-(8-pyridin-4-yl-2,8-diazaspiro[4.5]decane-2-carbonyl)-2,3-dihydro-1H-inden-1-yl]-butyramide]",102%
13,"O=C(NC1CCc2ccc(C(=O)N3CCC4(CCN(Cc5ccccn5)CC4)CC3)cc21)c1cc(C(F)(F)F)ccc1Cl (centres unmarked) [IND_CC-640, 2-Chloro-N-[6-[9-(pyridin-2-yl-methyl)-3,9-diazaspiro[5.5]undecane-3-carbonyl]-2,3-dihydro-1H-inden-1-yl]-5-(trifluoromethyl)-benzamide]",73%
14,"Cn1nnc2cc(CN3CCC4(CC3)CCN(C(=O)c3ccc5c(c3)C(NC(=O)c3cc(Cl)ccc3F)CC5)CC4)ccc21 (centres unmarked) [IND_CC-679, 5-Chloro-2-fluoro-N-[6-[9-[(1-methyl-1H-benzotriazol-5-yl)-methyl]-3,9-diazaspiro[5.5]undecane-3-carbonyl]-2,3-dihydro-1H-inden-1-yl]-benzamide]",82%
15,"N#Cc1ccc(CN2CCC3(CC2)CCN(C(=O)c2ccc4c(c2)C(NC(=O)c2cc(C(F)(F)F)ccc2Cl)CC4)C3)cc1 (centres unmarked) [IND_CC-658, 2-Chloro-N-[6-[8-[(4-cyano-phenyl)-methyl]-2,8-diazaspiro[4.5]decane-2-carbonyl]-2,3-dihydro-1H-inden-1-yl]-5-(trifluoromethyl)-benzamide]",51%
16,"Cc1nc[nH]c1CN1CCC2(CC1)CCN(C(=O)c1ccc3c(c1)C(NC(=O)c1cc(C(F)(F)F)ccc1Cl)CC3)C2 (centres unmarked) [IND_CC-655, 2-Chloro-N-[6-[8-[(5-methyl-3H-imidazol-4-yl)-methyl]-2,8-diazaspiro[4.5]-decane-2-carbonyl]-2,3-dihydro-1H-inden-1-yl]-5-(trifluoromethyl)-benzamide]",59%
17,"COc1cccc(F)c1CN1CCC2(CC1)CCN(C(=O)c1ccc3c(c1)C(NC(=O)c1cc(C(F)(F)F)ccc1Cl)CC3)CC2 (centres unmarked) [IND_CC-649, 2-Chloro-N-[6-[9-[(2-fluoro-6-methoxy-phenyl)-methyl]-3,9-diazaspiro[5.5]-undecane-3-carbonyl]-2,3-dihydro-1H-inden-1-yl]-5-(trifluoromethyl)benzamide]",76%
18,"CN(C(=O)c1ccccc1Cl)C1CCc2ccc(C(=O)N3CCC4(CCN(C(=O)C5CC5)CC4)C3)cc21 (centres unmarked) [IND_CC-589, 2-Chloro-N-[6-[8-(cyclopropanecarbonyl)-2,8-diazaspiro[4.5]decane-2-carbonyl]-2,3-dihydro-1H-inden-1-yl]-N-methyl-benzamide]",81%
19,"Cc1cc(C(=O)N2CCC3(CCN(C(=O)c4ccc5c(c4)C(NC(=O)c4sccc4Cl)CC5)C3)CC2)n(C(C)(C)C)n1 (centres unmarked) [IND_CC-588, N-[6-[8-(2-tert-Butyl-5-methyl-2H-pyrazole-3-carbonyl)-2,8-diazaspiro[4.5]-decane-2-carbonyl]-2,3-dihydro-1H-inden-1-yl]-3-chloro-thiophene-2-carboxylic acid amide]",61%
20,"O=C(c1ccc2c(c1)C(NS(=O)(=O)c1cc(Cl)ccc1Cl)CC2)N1CCC2(CCN(c3ccncc3)CC2)C1 (centres unmarked) [IND_CC-357, 2,5-Dichloro-N-[6-(8-pyridin-4-yl-2,8-diazaspiro[4.5]decane-2-carbonyl)-2,3-dihydro-1H-inden-1-yl]-benzenesulfonic acid amide]",95%
